This note sets out measurements from patent US20040044000A1, “Isoquinoline derivatives as matrix metalloproteinase inhibitors” (priority 2002, published 2004).

By IC50 is commonly meant the point on the concentration scale where inhibition reaches its midpoint.

Assay type in all cases: biochemical
Test [1] deals with T1, MMP-13 catalytic domain (MMP-13CD) (Homo sapiens, UniProt P45452).
T1 construct: use the catalytic domain of the MMP-13 enzyme, namely matrix metalloproteinase-13 catalytic domain (“MMP-13CD”), rather than the corresponding full-length enzyme
Put plainly: Inhibition of MMP-13 catalytic domain (thiopeptolide substrate hydrolysis). As to conditions: Biological Table 1; read-out: MMP-13CD IC50. Put shortly: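 Catalytic domain of MMP-13 (MMP-13CD) with 100 μM Ac-Pro-Leu-Gly-thioester-Leu-Leu-Gly-OEt in 50 mM HEPES pH 7.0, 10 mM CaCl2, 1 mM DTNB at 22° C. Hydrolysis followed by absorbance at 405 nm; IC50 (μM) from multiple compound concentrations.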

Test [2] concerns the target MMP-3 catalytic domain (MMP-3CD) (Homo sapiens, UniProt P08254). Put plainly: Inhibition of MMP-3 catalytic domain (thiopeptolide substrate hydrolysis, MES pH 6.0). The text has this: (§1) The assays measure the amount by which a test compound reduces the hydrolysis of a thiopeptolide substrate catalyzed by a matrix metalloproteinase enzyme. Such assays are described in detail by Ye et al., in Biochemistry, 1992;31(45):11231-11235, which is incorporated herein by reference. One such assay is described below in Biological Method 1.
(§2) Thiopeptolide substrates show virtually no decomposition or hydrolysis at or below neutral pH in the absence of a matrix metalloproteinase enzyme. A typical thiopeptolide substrate commonly utilized for assays is Ac-Pro-Leu-Gly-thioester-Leu-Leu-Gly-OEt. A 100 μL assay mixture will contain 50 mM of N-2-hydroxyethylpiperazine-N′-2-ethanesulfonic acid buffer (“HEPES,” pH 7.0), 10 mM CaCl2, 100 μM thiopeptolide substrate, and 1 mM 5,5′-dithio-bis-(2-nitro-benzoic acid) (DTNB). The thiopeptolide substrate concentration may be varied, for example from 10 to 800 μM to obtain Km and Kcat values. The change in absorbance at 405 nm is monitored on a Thermo Max microplate reader (molecular Devices, Menlo Park, Calif.) at room temperature (22° C.). The calculation of the amount of hydrolysis of the thiopeptolide substrate is based on E412=13600 M^−1 cm^−1 for the DTNB-derived product 3-carboxy-4-nitrothiophenoxide. Assays are carried out with and without matrix metalloproteinase inhibitor compounds, and the amount of hydrolysis is compared for a determination of inhibitory activity of the test compounds.
(§3) Test compounds were evaluated at various concentrations in order to determine their respective IC50 values, the micromolar concentration of compound required to cause a 50% inhibition of catalytic activity of the respective enzyme.
It should be appreciated that the assay buffer used with MMP-3CD was 50 mM N-morpholinoethane sulfonate (“MES”) at pH 6.0 rather than the HEPES buffer at pH 7.0 described above.

Test [3] concerns the target T2, MMP-12 catalytic domain (MMP-12CD) (Homo sapiens, UniProt P39900).
T2 construct: MMP-3 catalytic domain, MMP-12 catalytic domain, MMP-14 catalytic domain, and MMP-17 catalytic domain
Put plainly: Inhibition of MMP-12 catalytic domain (thiopeptolide substrate hydrolysis).
From the text: as §1, §2, §3
(§4) The test described above for the inhibition of MMP-13 may also be adapted and used to determine the ability of the compounds of Formula I to inhibit the matrix metalloproteases MMP-1, MMP-2, MMP-3, MMP-7, MMP-9, MMP-12 and MMP-14.

For test [4], the target named is MMP-14 catalytic domain (MMP-14CD) (Homo sapiens, UniProt P50281). Put plainly: Inhibition of MMP-14 catalytic domain (thiopeptolide substrate hydrolysis).
From the text: as §1, §2, §3, §4

Test [5] deals with T3, MMP-17 catalytic domain (MMP-17CD) (Homo sapiens, UniProt Q9ULZ9).
T3 construct: MMP-3 catalytic domain, MMP-12 catalytic domain, MMP-14 catalytic domain, and MMP-17 catalytic domain
T3 sequence (Q9ULZ9 126-295 limits assumed): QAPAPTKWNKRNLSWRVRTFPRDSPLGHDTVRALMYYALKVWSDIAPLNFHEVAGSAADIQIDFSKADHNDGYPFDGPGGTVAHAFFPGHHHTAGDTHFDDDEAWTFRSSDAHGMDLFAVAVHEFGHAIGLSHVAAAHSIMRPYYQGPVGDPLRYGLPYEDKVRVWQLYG
As to the kind of experiment: Inhibition of MMP-17 catalytic domain (thiopeptolide substrate hydrolysis).
From the text: as §1, §2, §3

T2 sequence (P39900 106-263 limits assumed, species assumed): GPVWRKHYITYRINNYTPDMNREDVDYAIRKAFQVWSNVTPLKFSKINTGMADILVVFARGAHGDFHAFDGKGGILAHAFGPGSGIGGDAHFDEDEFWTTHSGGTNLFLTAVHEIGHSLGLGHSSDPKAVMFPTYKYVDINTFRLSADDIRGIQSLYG
Sequence of MMP-3 catalytic domain (MMP-3CD) (P08254 100-272 limits assumed, species assumed): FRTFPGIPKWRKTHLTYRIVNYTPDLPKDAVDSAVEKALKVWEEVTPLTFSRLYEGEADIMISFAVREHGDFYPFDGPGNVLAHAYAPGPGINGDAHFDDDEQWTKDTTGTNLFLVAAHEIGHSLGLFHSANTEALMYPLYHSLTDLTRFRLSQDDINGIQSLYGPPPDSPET

Consider `O=C(NN1CCCCC1)c1ccc(Cn2ccc3ccc(C#CCc4ccccc4)cc3c2=O)cc1` [Example 20, 4-[1-oxo-7-(3-phenylprop-1-ynyl)-1H-isoquinolin-2-ylmethyl]-N-piperidin-1-yl-benzamide], for which the IC50 was 0.039 µM in test [1]; 8 µM in test [2]; over 30 µM in test [3]; over 30 µM in test [4]; 2.3 µM in test [5].

With `COc1ccc(CNC(=O)c2ccc3ccn(Cc4ccc(S(C)(=O)=O)cc4)c(=O)c3c2)cc1` [Example 52, 2-(4-methane-sulfonylbenzyl)-1-oxo-1,2-dihydro-isoquinoline-7-carboxylic Acid 4-methoxy-benzylamide], the IC50 in test [1] is 0.85 µM; in test [2], over 30 µM; in test [3] it was over 30 µM; in test [4], over 30 µM; in test [5] it was over 30 µM.

For the compound `O=C(NCCN1CCOCC1)c1ccc(Cn2ccc3ccc(C#CCc4ccccc4)cc3c2=O)cc1` [Example 21, N-(2-morpholin-4-yl-ethyl)-4-[1-oxo-7-(3-phenylprop-1-ynyl)-1H-isoquinolin-2-ylmethyl]-benzamide], the IC50 in test [1] was 0.067 µM; in test [2], 22 µM; in test [3] it was over 100 µM; in test [4], over 100 µM; in test [5], over 3 µM.

In the case of `COc1cc(CNC(=O)c2ccc3ccn(Cc4ccc(C(=O)O)cc4)c(=O)c3c2)ccn1` [Example 27, 4-{7-[(2-methoxypyridin-4-ylmethyl)carbamoyl]-1-oxo-1H-isoquinolin-2-ylmethyl}benzoic acid], the IC50 in test [1] is 0.036 µM; in test [2] it was over 100 µM; in test [3] it was over 100 µM; in test [4] it was over 100 µM; in test [5] it was 74 µM.

Turning to `COc1cccc(CNC(=O)c2ccc3ccn(Cc4ccc(S(C)(=O)=O)cc4)c(=O)c3c2)c1` [Example 53, 2-(4-methane-sulfonylbenzyl)-1-oxo-1,2-dihydro-isoquinoline-7-carboxylic Acid 3-methoxy-benzylamide], the IC50 in test [1] was 0.21 µM; in test [2], over 30 µM; in test [3] it was 61 µM; in test [4], over 100 µM; in test [5], over 100 µM.

As to `O=C(O)c1ccc(Cn2ccc3ccc(C(=O)NCc4cccnc4)cc3c2=O)cc1` [Example 30, 4-{1-oxo-7-[(pyridin-3-ylmethyl)carbamoyl]-1H-isoquinolin-2-ylmethyl}benzoic Acid], the IC50 in test [1] was 0.4 µM; in test [2], over 100 µM; in test [3], over 100 µM; in test [4], over 100 µM; in test [5] it was over 100 µM.

Take `O=C1CC(NC(=O)c2ccc(Cn3ccc4ccc(C#CCc5ccccc5)cc4c3=O)cc2)=NN1` [Example 22, N-(5-oxo-4,5-dihydro-1H-pyrazol-3-yl)-4-[1-oxo-7-(3-phenylprop-1-ynyl)-1H-isoquinolin-2-ylmethyl]benzamide]: the IC50 is 0.019 µM in test [1]; 4.1 µM in test [2]; over 100 µM in test [3]; 16 µM in test [4]; 14 µM in test [5].
